Source: patent US20240383908A1, “SYNTHESIS AND APPLICATION OF PHOSPHATASE DEGRADER” (HINOVA PHARMACEUTICALS INC., priority 2021, published 2024)

The compounds below were run against T1, SHP2 protein (Homo sapiens, UniProt Q06124) (assay: Degradation activity on SHP2 protein in MV-411 cells (Western blot, DC50)). Conditions: MV411 cells, 24 hours, read-out: Degradation activity for differenct cell lines MV411 (DC50).
T1 sequence (Q06124 1-593): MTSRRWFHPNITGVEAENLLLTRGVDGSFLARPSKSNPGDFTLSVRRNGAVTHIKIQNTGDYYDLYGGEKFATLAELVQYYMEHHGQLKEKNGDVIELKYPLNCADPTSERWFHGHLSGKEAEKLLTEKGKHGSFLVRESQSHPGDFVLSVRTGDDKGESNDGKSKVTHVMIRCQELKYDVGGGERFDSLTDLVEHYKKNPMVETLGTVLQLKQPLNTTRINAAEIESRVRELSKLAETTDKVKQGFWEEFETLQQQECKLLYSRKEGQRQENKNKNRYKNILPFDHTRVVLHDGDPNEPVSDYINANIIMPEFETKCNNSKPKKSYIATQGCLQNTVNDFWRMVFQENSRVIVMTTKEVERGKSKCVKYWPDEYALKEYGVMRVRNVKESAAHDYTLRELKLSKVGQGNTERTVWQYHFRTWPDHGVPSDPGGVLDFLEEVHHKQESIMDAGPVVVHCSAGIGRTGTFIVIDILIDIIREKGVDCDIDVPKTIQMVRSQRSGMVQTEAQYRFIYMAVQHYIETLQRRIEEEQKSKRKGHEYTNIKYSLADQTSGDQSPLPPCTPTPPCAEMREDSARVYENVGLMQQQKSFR
Format: cell-based
Set-up: endogenous in cells
Method: • MV-411 cell line (COBIER, CBP-60522) • FBS (GEMINI, Cat. No. 900-108) • 0.01M PBS (Biosharp, Cat. No. 162262) • IMDM (Hyclone, Cat. No. SH30228.01) • Penicillin-Streptomycin (Gibco, Cat. No. 15140122) • DMSO (Sigma, Cat. No. D5879) • Centrifuge Tube, 15 ml (Excell Bio, Cat. No. CS015-0001) • Cell Culture Dish, (WHB, Cat. No. CS016-0128) • 12-well cell culture cluster (Corning, Cat. No. 3513) • RIPA lysate buffer (Thermo, Cat. No. 89900) • Protein Loding Buffer (Beyotime, Cat. No. P0015L) • BCA Protein Assay Kit (EpiZyme, Cat. No. ZJ102) • SDS-PAGE Fast Preparation Kit (EpiZyme, Cat. No. PG112) • Anti-GAPDH (14C10) Rabbit mAb (CST, Cat. No. 2118L) • Anti-SHP2 rabbit mAb (CST, Cat. No. 37525) • Peroxidase Affinipure (HRP) Goat Anti-Rabbit IgG (Zen Bioscience, Cat. No. 511203) • TBST (Biosharp, Cat. No. BL601A) • ECL chemiluminescence kit (4A Biotech, Cat. No. 4AW011-200)
• (1) Cell culture medium: IMIDM medium+10% FBS+1% Pen Strep; • (2) PBS buffer: PBS powder was dissolved in 2 L of ultrapure water and sterilized; • (3) Cell lysate: RIPA lysate buffer is added with protease inhibitors at a ratio of 1:1000 before use.
(1) MV-411 cells were cultured in the cell culture medium, and then well-growing cells were selected and inoculated in a 12-well plate, with 1 mL/well and 1×10^6 cells/well. The plate was incubated overnight in a 5% CO2 cell incubator at 37° C.
(2) 10 mM storage solution of each drug was prepared using dimethylsulfoxide (DMSO). The stock solution was diluted gradually with DMSO before use, and then 1 μL of the compound solution was added to the cell culture well (to ensure that the DMSO concentration in the culture system was […]), so that the final drug concentration is 100 nM, 10 nM, 3 nM, 1 nM, 0.3 nM, and 0.1 nM. Two wells were set for each concentration. The plate was gently shaken and mixed. Additionally, negative control wells (containing an equal amount of DMSO) and positive control wells were included.
(3) After 24 hours of cultivation, the cells were lysed using RIPA cell lysate, and the proteins were extracted. The protein concentration was measured using a BCA assay kit. 5× concentrated protein buffer was loaded, heated at 100° C. for 5 min, and then the sample was stored at −20° C.
(4) For each well, 30 μg of protein was loaded to polyacrylamide gel for electrophoresis.
(5) The protein was transferred from polyacrylamide gel to PVDF membrane, and sealed at room temperature with 5% skimmed milk for 1 h, which was then incubated with the primary antibodies (Anti-SHP2 rabbit mAb and Anti-GAPDH rabbit mAb) at 4° C. overnight. The membrane was washed three times with TBST solution, 10 minutes for each time. After that, the membrane was incubated with the secondary antibodies (horseradish peroxidase labeled goat anti-rabbit IgG) at room temperature for 2 h, and then washed three times with TBST solution, 10 minutes for each time, followed by exposure.
(6) The images were analyzed with Image J grayscale, and the degradation ratio of protein bands in the test group was calculated, based on the negative control group (DMSO) (100%).
(7) Using the Dose-response-inhibition equation in the data processing software GraphPad Prism 8, the DC50 value was obtained (which represents the drug concentration corresponding to 50% degradation of the target protein).
Finally, ECL detection solution was added for color development, and photos were taken with an automatic chemiluminescence instrument, so as to collect images and analyze them.

CC1(N)CCN(c2cnc(Sc3cccc(NC(=O)CCCCC(=O)Nc4cccc5c4CN(C4CCC(=O)NC4=O)C5=O)c3)cn2)CC1 (centres unmarked) [Compound 1] and CC1(N)CCN(c2cnc(Sc3cccc(NC(=O)CC(=O)Nc4cccc5c4CN(C4CCC(=O)NC4=O)C5=O)c3)cn2)CC1 (centres unmarked) [Compound 5] cannot be ordered by DC50: over 1 µM for the first, over 1 µM for the second.

First: CC1(N)CCN(c2cnc(Sc3cccc(NC(=O)CCCCCCCC(=O)NCc4ccc5c(c4)CN(C4CCC(=O)NC4=O)C5=O)c3)cn2)CC1 (centres unmarked) [Compound 2]
Second: CC1(N)CCN(c2cnc(Sc3cccc(NC(=O)CCC(=O)N4CCN(CCCCCCCCC(=O)NCc5ccc6c(c5)CN(C5CCC(=O)NC5=O)C6=O)CC4)c3)cn2)CC1 (centres unmarked) [Compound 27]
The DC50 of the first is higher: 0.1 to 1 µM for the first, under 0.1 µM for the second.

Compared with CC1(N)CCN(c2cnc(Sc3cccc(NC(=O)COCCOCCOCCOCC(=O)NCc4ccc5c(c4)CN(C4CCC(=O)NC4=O)C5=O)c3)cn2)CC1 (centres unmarked) [Compound 3], CC1(N)CCN(c2cnc(Sc3cccc(NC(=O)COCCOCCOCCOCC(=O)Nc4ccc5c(c4)CN(C4CCC(=O)NC4=O)C5=O)c3)cn2)CC1 (centres unmarked) [Compound 18] is higher in DC50: 0.1 to 1 µM for the first, over 1 µM for the second.

First: CC1(N)CCN(c2cnc(Sc3cccc(NC(=O)COCCOCCOCCOCC(=O)Nc4ccc5c(c4)C(=O)N(C4CCC(=O)NC4=O)C5)c3)cn2)CC1 (centres unmarked) [Compound 4]
Second: CC1(N)CCN(c2cnc(Sc3cccc(NC(=O)COCCOCCOCCOCC(=O)Nc4cccc5c4CN(C4CCC(=O)NC4=O)C5=O)c3)cn2)CC1 (centres unmarked) [Compound 17]
The DC50 of the first is lower: 0.1 to 1 µM for the first, over 1 µM for the second.

First: Cc1ncsc1-c1ccc([C@H](C)NC(=O)[C@@H]2C[C@@H](O)CN2C(=O)[C@@H](NC(=O)COCCOCCOCCOCC(=O)Nc2ccc(Sc3cnc(N4CCC(C)(CN)CC4)cn3)c(Cl)c2)C(C)(C)C)cc1 [Compound 7]
Second: Cc1ncsc1-c1ccc([C@H](C)NC(=O)[C@@H]2C[C@@H](O)CN2C(=O)[C@@H](NC(=O)COCCOCCOCCOCC(=O)Nc2cccc(Sc3cnc(N4CCC(C)(N)CC4)cn3)c2)C(C)(C)C)cc1 [Compound 12]
The DC50 of the first is higher: 0.1 to 1 µM for the first, under 0.1 µM for the second.

CC1(CN)CCN(c2cnc(Sc3ccc(NC(=O)COCCOCC(=O)Nc4ccc5c(c4)C(=O)N(C4CCC(=O)NC4=O)C5)cc3Cl)cn2)CC1 (centres unmarked) [Compound 8] and CC1(CN)CCN(c2cnc(Sc3ccc(NC(=O)COCCOCCOCCOCC(=O)Nc4ccc5c(c4)C(=O)N(C4CCC(=O)NC4=O)C5)cc3Cl)cn2)CC1 (centres unmarked) [Compound 11] cannot be ordered by DC50: over 1 µM for the first, over 1 µM for the second.

CC1(N)CCN(c2cnc(Sc3cccc(NC(=O)CC(=O)Nc4ccc5c(c4)C(=O)N(C4CCC(=O)NC4=O)C5)c3)cn2)CC1 (centres unmarked) [Compound 9] and CC1(N)CCN(c2cnc(Sc3cccc(NC(=O)CCC(=O)NCCOCCOCCOCC(=O)Nc4ccc5c(c4)C(=O)N(C4CCC(=O)NC4=O)C5)c3)cn2)CC1 (centres unmarked) [Compound 22] cannot be ordered by DC50: over 1 µM for the first, over 1 µM for the second.

CC1(CN)CCN(c2cnc(Sc3cccc(NC(=O)CCC(=O)N4CCN(CCCCCCCCC(=O)Nc5cccc6c5CN(C5CCC(=O)NC5=O)C6=O)CC4)c3Cl)cn2)CC1 (centres unmarked) [Compound 13] and CC1(CN)CCN(c2cnc(Sc3cccc(NC(=O)CCC(=O)N4CCN(CCCCCCCCC(=O)Nc5ccc6c(c5)CN(C5CCC(=O)NC5=O)C6=O)CC4)c3Cl)cn2)CC1 (centres unmarked) [Compound 14] cannot be ordered by DC50: under 0.1 µM for the first, under 0.1 µM for the second.

CC1(CN)CCN(c2cnc(Sc3cccc(NC(=O)CCC(=O)N4CCN(CCCCCCCCC(=O)NCc5ccc6c(c5)CN(C5CCC(=O)NC5=O)C6=O)CC4)c3Cl)cn2)CC1 (centres unmarked) [Compound 15, 9-(4-(4-((3-((5-(4-(aminomethyl)-4-methylpyridin-1-yl)pyrazin-2-yl)thio)-2-chlorophenyl)amino)-4-oxobutyryl)piperazin-1-yl)-N-((2-(2,6-dioxopiperidin-3-yl)-1-oxoisoindol-5-yl)methyl)nonanamide] and CC1(CN)CCN(c2cnc(Sc3cccc(NC(=O)CCC(=O)N4CCN(CCCCCCCCC(=O)Nc5ccc6c(c5)C(=O)N(C5CCC(=O)NC5=O)C6)CC4)c3Cl)cn2)CC1 (centres unmarked) [Compound 16] cannot be ordered by DC50: under 0.1 µM for the first, under 0.1 µM for the second.

CC1(N)CCN(c2cnc(Sc3cccc(NC(=O)CCC(=O)NCCOCCOCC(=O)NCc4ccc5c(c4)CN(C4CCC(=O)NC4=O)C5=O)c3)cn2)CC1 (centres unmarked) [Compound 19] and CC1(N)CCN(c2cnc(Sc3cccc(NC(=O)CCC(=O)NCCOCCOCCOCC(=O)NCc4ccc5c(c4)CN(C4CCC(=O)NC4=O)C5=O)c3)cn2)CC1 (centres unmarked) [Compound 21] cannot be ordered by DC50: over 1 µM for the first, over 1 µM for the second.

Cc1nc2cccc(NC(=O)COCCOCCNC(=O)CCC(=O)Nc3cccc(Sc4cnc(N5CCC(C)(N)CC5)cn4)c3)c2c(=O)n1C1CCC(=O)NC1=O (centres unmarked) [Compound 20] and CC1(N)CCN(c2cnc(Sc3cccc(NC(=O)CCC(=O)NCCOCCOCC(=O)Nc4cccc5c4CN(C4CCC(=O)NC4=O)C5=O)c3)cn2)CC1 (centres unmarked) [Compound 29] cannot be ordered by DC50: over 1 µM for the first, over 1 µM for the second.

CC1(N)CCN(c2cnc(Sc3cccc(NC(=O)[C@H]4CCC[C@@H]4C(=O)N4CCN(CCCCCCCCC(=O)Nc5ccc6c(c5)C(=O)N(C5CCC(=O)NC5=O)C6)CC4)c3)cn2)CC1 (some centres unmarked) [Compound 24] and CC1(N)CCN(c2cnc(Sc3cccc(NC(=O)[C@H]4CCC[C@@H]4C(=O)N4CCN(CCCCCCCCC(=O)NCc5ccc6c(c5)CN(C5CCC(=O)NC5=O)C6=O)CC4)c3)cn2)CC1 (some centres unmarked) [Compound 25] cannot be ordered by DC50: over 1 µM for the first, over 1 µM for the second.

CC1(N)CCN(c2cnc(Sc3cccc(NC(=O)CCC(=O)N4CC5(CN(CCCCCCCC(=O)Nc6ccc7c(c6)C(=O)N(C6CCC(=O)NC6=O)C7)C5)C4)c3)cn2)CC1 (centres unmarked) [Compound 26] and CC1(N)CCN(c2cnc(Sc3cccc(NC(=O)CCC(=O)NCCOCCOCC(=O)Nc4ccc5c(c4)CN(C4CCC(=O)NC4=O)C5=O)c3)cn2)CC1 (centres unmarked) [Compound 30] cannot be ordered by DC50: over 1 µM for the first, over 1 µM for the second.

With Cc1ncsc1-c1ccc([C@H](C)NC(=O)[C@@H]2C[C@@H](O)CN2C(=O)[C@@H](NC(=O)CCCCCCCCN2CCN(C(=O)[C@H]3CCC[C@@H]3C(=O)Nc3cccc(Sc4cnc(N5CCC(C)(N)CC5)cn4)c3)CC2)C(C)(C)C)cc1 [Compound 28] the DC50 was under 0.1 µM.

Each compound was assayed against T1, SHP2 protein (assay: Degradation activity on SHP2 protein in MIA Paca-2 cells (Western blot, DC50)). Conditions: read-out: Degradation activity for differenct cell lines MIA Paca-2 (DC50).
Format: cell-based
Set-up: endogenous in cells; host or cells: MIA Paca-2 cells
In short: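 DC50 is the concentration degrading 50% of SHP2 relative to DMSO control. It was derived by fitting Western blot band densitometry (anti-SHP2, GAPDH reference) from cells exposed 24 h to 0.1–100 nM compound in 0.1% DMSO.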

Compared with C[C@@H]1OCC2(CCN(c3cnc(Sc4cccc(NCc5ccc(N6CCC(N7CC=C(c8ccc(C(=O)NCc9ccc%10c(c9)CN(C9CCC(=O)NC9=O)C%10=O)nc8Cl)CC7)CC6)c(F)c5)c4)cn3)CC2)[C@@H]1N (some centres unmarked) [Compound 518], C[C@@H]1OCC2(CCN(c3cnc(Sc4cccc(NC(=O)c5ccc(N6CCC(N7CC=C(c8ccc(C(=O)NCc9ccc%10c(c9)CN(C9CCC(=O)NC9=O)C%10=O)nn8)CC7)C6)cc5)c4)cn3)CC2)[C@@H]1N (some centres unmarked) [Compound 520] is lower in DC50: 0.1 to 1 µM for the first, under 0.1 µM for the second.
